This is an account of results in US20260028365A1 (BIOGEN MA INC., priority 2022, published 2026).

pIC50: −log10 of the molar value. Like-named read-outs stand apart in the source and are kept apart here.

Usually pIC50 stands for the IC50 on a negative log10 scale, so that one unit is a factor of ten. A low value points to a large IC50.

One assay has as its target JH2 domain of human Tyk2 (Homo sapiens (Human), UniProt P29597). Description: JH2 Biochemical Assay (TR-FRET probe displacement). Type of assay: binding. Background: Time-resolved FRET reads energy transfer from a long-lived donor to a nearby acceptor.
A further assay concerns the target Tyk2 (Homo sapiens (Human), UniProt P29597). In words: pSTAT4 Cell Assay (MSD, NK92 cells). Type of assay: cell-based.
The mark [1] stands for this setting: JH2 domain of human Tyk2, TR-FRET probe displacement.
[2] abbreviates: TR-FRET probe displacement, JH2 domain of human Tyk2.
Where [3] appears, read: TR-FRET probe displacement, JH2 domain.

Sequence of Tyk2 (P29597 whole entry, the tested form may be a part): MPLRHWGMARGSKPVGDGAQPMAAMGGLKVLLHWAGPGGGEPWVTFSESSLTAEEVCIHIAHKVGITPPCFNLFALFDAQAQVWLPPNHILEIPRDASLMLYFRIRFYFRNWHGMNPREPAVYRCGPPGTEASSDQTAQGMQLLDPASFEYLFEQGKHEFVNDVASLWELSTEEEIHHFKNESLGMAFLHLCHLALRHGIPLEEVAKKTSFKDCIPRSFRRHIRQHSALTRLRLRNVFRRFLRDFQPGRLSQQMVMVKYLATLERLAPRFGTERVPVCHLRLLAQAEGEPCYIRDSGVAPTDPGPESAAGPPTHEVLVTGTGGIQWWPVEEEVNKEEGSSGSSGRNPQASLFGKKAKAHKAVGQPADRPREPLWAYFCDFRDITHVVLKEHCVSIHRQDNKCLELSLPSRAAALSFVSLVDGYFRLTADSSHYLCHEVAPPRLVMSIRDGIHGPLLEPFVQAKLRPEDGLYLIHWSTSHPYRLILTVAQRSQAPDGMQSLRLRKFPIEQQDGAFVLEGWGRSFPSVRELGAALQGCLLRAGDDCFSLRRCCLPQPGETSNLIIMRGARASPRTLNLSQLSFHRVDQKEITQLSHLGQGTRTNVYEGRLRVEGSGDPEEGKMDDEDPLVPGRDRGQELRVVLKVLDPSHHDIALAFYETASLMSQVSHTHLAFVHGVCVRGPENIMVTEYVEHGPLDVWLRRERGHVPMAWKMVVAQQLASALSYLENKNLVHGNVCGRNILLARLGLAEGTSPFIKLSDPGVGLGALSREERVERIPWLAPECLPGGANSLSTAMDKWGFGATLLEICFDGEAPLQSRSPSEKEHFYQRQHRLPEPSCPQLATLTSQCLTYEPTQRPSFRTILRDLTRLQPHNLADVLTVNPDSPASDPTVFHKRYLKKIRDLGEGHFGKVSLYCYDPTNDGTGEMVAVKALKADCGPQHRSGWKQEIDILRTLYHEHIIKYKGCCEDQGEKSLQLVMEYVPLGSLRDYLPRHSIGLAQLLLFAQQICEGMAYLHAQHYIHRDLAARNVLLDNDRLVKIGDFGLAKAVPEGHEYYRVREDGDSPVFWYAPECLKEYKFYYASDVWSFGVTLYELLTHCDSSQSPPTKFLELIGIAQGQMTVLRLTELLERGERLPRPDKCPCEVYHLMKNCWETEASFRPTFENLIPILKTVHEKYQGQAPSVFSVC
Sequence of JH2 domain of human Tyk2 (P29597 575-876): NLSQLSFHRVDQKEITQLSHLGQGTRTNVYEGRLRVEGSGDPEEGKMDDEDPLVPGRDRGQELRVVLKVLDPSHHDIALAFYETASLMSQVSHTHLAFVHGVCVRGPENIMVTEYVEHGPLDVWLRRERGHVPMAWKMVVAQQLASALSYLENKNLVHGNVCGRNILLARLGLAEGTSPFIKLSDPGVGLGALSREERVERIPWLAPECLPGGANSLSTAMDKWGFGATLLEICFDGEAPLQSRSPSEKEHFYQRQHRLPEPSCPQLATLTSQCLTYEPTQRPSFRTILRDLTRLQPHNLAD

`CC(=O)Nc1cc(Nc2cc(C)nc(C(C)(F)F)n2)c(OCC2CC(F)(F)C2)cn1` [Example 465, N-(5-((3,3-difluorocyclobutyl)methoxy)-4-((2-(1,1-difluoroethyl)-6-methylpyrimidin-4-yl)amino)pyridin-2-yl)acetamide]: the pIC50 was not below 8.00 at JH2 domain of human Tyk2 (setting [1]) and 7.00 to 8.00 on Tyk2 (MSD).

In the case of `CC(=O)Nc1cc(Nc2cccc(C(C)(F)F)n2)c(-c2cc(=O)n(C)cn2)cn1` [Example 161, N-(4-((6-(1,1-difluoroethyl)pyridin-2-yl)amino)-5-(1-methyl-6-oxo-1,6-dihydropyrimidin-4-yl)pyridin-2-yl)acetamide], the values for the pIC50 on JH2 domain of human Tyk2 (setting [2]) and against Tyk2 (MSD) were not below 8.00 and 7.00 to 8.00, respectively.

With `COc1cnc(NC(C)=O)cc1Nc1cc(-c2ccncc2)nc(C(C)(F)F)n1` [Example 382, N-(4-((2-(1,1-difluoroethyl)-6-(pyridin-4-yl)pyrimidin-4-yl)amino)-5-methoxypyridin-2-yl)acetamide], the pIC50 on JH2 domain of human Tyk2 (setting [1]) and on Tyk2 (MSD) was 7.00 to 8.00 throughout.

For `COC(C)(C)Cn1ccc(-c2cnc(NC(C)=O)cc2Nc2cc(C)nc(C(C)(F)F)n2)n1` [Example 230, N-(4-((2-(1,1-difluoroethyl)-6-methylpyrimidin-4-yl)amino)-5-(1-(2-methoxy-2-methylpropyl)-1H-pyrazol-3-yl)pyridin-2-yl)acetamide], the negative-log IC50 (pIC50) at JH2 domain of human Tyk2 (setting [2]) and against Tyk2 (MSD) was not below 8.00 throughout.

For the compound `CCOc1cnc(NC(C)=O)cc1Nc1cc(-c2ccc(CC)nc2)nc(C(C)(F)F)n1` [Example 368, N-(4-((2-(1,1-difluoroethyl)-6-(6-ethylpyridin-3-yl)pyrimidin-4-yl)amino)-5-ethoxypyridin-2-yl)acetamide], the negative-log IC50 (pIC50) at JH2 domain of human Tyk2 (setting [2]) and against Tyk2 (MSD) was not below 8.00 each time.

On to `CC(=O)Nc1cc(Nc2cc(C)nc(C(C)(F)F)n2)c(OCc2nc(C)c(C)o2)cn1` [Example 338, N-(4-((2-(1,1-difluoroethyl)-6-methylpyrimidin-4-yl)amino)-5-((4,5-dimethyloxazol-2-yl)methoxy)pyridin-2-yl)acetamide], for which the negative-log IC50 (pIC50) is not below 8.00 at JH2 domain of human Tyk2 (setting [2]) and 7.00 to 8.00 at Tyk2 (MSD).

In the case of `CC(=O)Nc1cc(Nc2cc(C)nc(C(C)(F)F)n2)c(OC2CCOC2)cn1` (stereo not drawn) [Example 477, N-(4-((2-(1,1-difluoroethyl)-6-methylpyrimidin-4-yl)amino)-5-((tetrahydrofuran-3-yl)oxy)pyridin-2-yl)acetamide], the pIC50 was not below 8.00 on JH2 domain of human Tyk2 (setting [1]) and 7.00 to 8.00 at Tyk2 (MSD).

Turning to `CCOc1cnc(NC(C)=O)cc1Nc1cc(-c2cnn(CCOC)c2)nc(C(C)(F)F)n1` [Example 310, N-(4-((2-(1,1-difluoroethyl)-6-(1-(2-methoxyethyl)-1H-pyrazol-4-yl)pyrimidin-4-yl)amino)-5-ethoxypyridin-2-yl)acetamide], the pIC50 on JH2 domain of human Tyk2 (setting [2]) was not below 8.00; on Tyk2 (MSD) it was 7.00 to 8.00.

For `[2H]C([2H])([2H])N1CCn2nc(-c3cnc(NC(C)=O)cc3Nc3cc(C)nc(C(C)(F)F)n3)cc2C1` [Example 545, N-(4-((2-(1,1-difluoroethyl)-6-methylpyrimidin-4-yl)amino)-5-(5-(methyl-d3)-4,5,6,7-tetrahydropyrazolo[1,5-a]pyrazin-2-yl)pyridin-2-yl)acetamide], the pIC50 at JH2 domain of human Tyk2 (setting [1]) and against Tyk2 (MSD) was not below 8.00 throughout.

On to `CC(=O)Nc1cc(Nc2cc(C)nc(C(C)(C)F)n2)c(-c2ccn3nccc3n2)cn1` [Example 538, N-(4-((2-(2-fluoropropan-2-yl)-6-methylpyrimidin-4-yl)amino)-5-(pyrazolo[1,5-a]pyrimidin-5-yl)pyridin-2-yl)acetamide], for which the pIC50 at JH2 domain of human Tyk2 (setting [1]) and against Tyk2 (MSD) was not below 8.00 in each case.

`CC(=O)Nc1cc(Nc2cc(C)nc(C(C)(F)F)n2)c(OCC2COC2)cn1` [Example 61, N-(4-((2-(1,1-difluoroethyl)-6-methylpyrimidin-4-yl)amino)-5-(oxetan-3-ylmethoxy)pyridin-2-yl)acetamide]: the pIC50 on JH2 domain of human Tyk2 (setting [2]) was not below 8.00; against Tyk2 (MSD), 7.00 to 8.00.

For the compound `CCOCCOc1cnc(NC(C)=O)cc1Nc1cc(C)nc(C(C)(F)F)n1` [Example 507, N-(4-((2-(1,1-difluoroethyl)-6-methylpyrimidin-4-yl)amino)-5-(2-ethoxyethoxy)pyridin-2-yl)acetamide], the pIC50 on JH2 domain of human Tyk2 (setting [1]) and against Tyk2 (MSD) was not below 8.00 throughout.

Take `CCn1cc(COc2cnc(NC(C)=O)cc2Nc2cc(C)nc(C(C)(F)F)n2)cn1` [Example 509, N-(4-((2-(1,1-difluoroethyl)-6-methylpyrimidin-4-yl)amino)-5-((1-ethyl-1H-pyrazol-4-yl)methoxy)pyridin-2-yl)acetamide]: the pIC50 on JH2 domain of human Tyk2 (setting [1]) was not below 8.00; against Tyk2 (MSD), 7.00 to 8.00.

Take `CC(=O)Nc1cc(Nc2cc(C)nc(C(C)(F)F)n2)c(-c2cc(C)n(C)n2)cn1` [Example 619, N-(4-((2-(1,1-difluoroethyl)-6-methylpyrimidin-4-yl)amino)-5-(1,5-dimethyl-1H-pyrazol-3-yl)pyridin-2-yl)acetamide]: the pIC50 at JH2 domain of human Tyk2 (setting [1]) and against Tyk2 (MSD) was not below 8.00 each time.

In the case of `COCc1cnc(-c2cnc(NC(C)=O)cc2Nc2cc(C)nc(C(C)(F)F)n2)s1` [Example 231, N-(4-((2-(1,1-difluoroethyl)-6-methylpyrimidin-4-yl)amino)-5-(5-(methoxymethyl)thiazol-2-yl)pyridin-2-yl)acetamide], the negative logarithm of the IC50 (pIC50) at JH2 domain of human Tyk2 (setting [2]) and against Tyk2 (MSD) was not below 8.00 throughout.

For `COCCOc1cnc(NC(C)=O)cc1Nc1cncc(C(F)CF)n1` (stereo not drawn) [Example 89, N-(4-((6-(1,2-difluoroethyl)pyrazin-2-yl)amino)-5-(2-methoxyethoxy)pyridin-2-yl)acetamide], the pIC50 on JH2 domain of human Tyk2 (setting [2]) and on Tyk2 (MSD) was 7.00 to 8.00 each time.

With `COCc1cnc(NC(C)=O)cc1Nc1ccc(-c2ccn(C)n2)c(OC)n1` [Example 48, N-(4-((6-methoxy-5-(1-methyl-1H-pyrazol-3-yl)pyridin-2-yl)amino)-5-(methoxymethyl)pyridin-2-yl)acetamide], the pIC50 at JH2 domain of human Tyk2 (setting [2]) was 6.00 to 7.00; on Tyk2 (MSD), not above 6.00.

Consider `CC(=O)Nc1cc(Nc2cc(C)nc(C(C)(F)F)n2)c(-c2nccs2)cn1` [Example 605, N-(4-((2-(1,1-difluoroethyl)-6-methylpyrimidin-4-yl)amino)-5-(thiazol-2-yl)pyridin-2-yl)acetamide], for which the figures for the pIC50 at JH2 domain of human Tyk2 (setting [1]) and on Tyk2 (MSD) were not below 8.00 and 7.00 to 8.00, respectively.

With `COc1cnc(-c2cnc(NC(C)=O)cc2Nc2cc(C)nc(C(C)(F)F)n2)cn1` [Example 815, N-(4-((2-(1,1-difluoroethyl)-6-methylpyrimidin-4-yl)amino)-5-(5-methoxypyrazin-2-yl)pyridin-2-yl)acetamide], the pIC50 on JH2 domain of human Tyk2 (setting [3]) is not below 8.00; against Tyk2, not above 6.00.

Consider `CC(=O)Nc1cc(Nc2cc(C)nc(C(C)(F)F)n2)c(OC[C@@H]2CCC[C@H](C)O2)cn1` (stereo in doubt) [Example 442, Cis-rac-N-(4-((2-(1,1-difluoroethyl)-6-methylpyrimidin-4-yl)amino)-5-((6-methyltetrahydro-2H-pyran-2-yl)methoxy)pyridin-2-yl)acetamide], for which the pIC50 at JH2 domain of human Tyk2 (setting [1]) and against Tyk2 (MSD) was 7.00 to 8.00 each time.

Turning to `COC1(C)CN(c2cnc(-c3cnc(NC(C)=O)cc3Nc3ccnc(C(C)(F)F)n3)cn2)C1` [Example 868, N-(4-((2-(1,1-difluoroethyl)pyrimidin-4-yl)amino)-5-(5-(3-methoxy-3-methylazetidin-1-yl)pyrazin-2-yl)pyridin-2-yl)acetamide], the results for the pIC50 at JH2 domain of human Tyk2 (setting [3]) and against Tyk2 were not below 8.00 and 7.00 to 8.00, respectively.

In the case of `CC(=O)Nc1cc(Nc2cc(C)nc(C(C)(F)F)n2)c(-c2cnc(N(C)C)cn2)cn1` [Example 225, N-(4-((2-(1,1-difluoroethyl)-6-methylpyrimidin-4-yl)amino)-5-(5-(dimethylamino)pyrazin-2-yl)pyridin-2-yl)acetamide], the negative-log IC50 (pIC50) is not below 8.00 at JH2 domain of human Tyk2 (setting [2]) and 7.00 to 8.00 on Tyk2 (MSD).

In the case of `CC(=O)Nc1cc(Nc2cc(C)nc(C(C)(F)F)n2)c(OC[C@@H]2CCCO2)cn1` (single isomer, unassigned) [Example 293, (S)-N-(4-((2-(1,1-difluoroethyl)-6-methylpyrimidin-4-yl)amino)-5-((tetrahydrofuran-2-yl)methoxy)pyridin-2-yl)acetamide or (R)-N-(4-((2-(1,1-difluoroethyl)-6-methylpyrimidin-4-yl)amino)-5-((tetrahydrofuran-2-yl)methoxy)pyridin-2-yl)acetamide], the pIC50 on JH2 domain of human Tyk2 (setting [2]) was not below 8.00; at Tyk2 (MSD) it was 7.00 to 8.00.

For the compound `CCS(=O)(=O)n1ccc(-c2cnc(NC(C)=O)cc2Nc2cc(C)nc(C(C)(F)F)n2)n1` [Example 542, N-(4-((2-(1,1-difluoroethyl)-6-methylpyrimidin-4-yl)amino)-5-(1-(ethylsulfonyl)-1H-pyrazol-3-yl)pyridin-2-yl)acetamide], the pIC50 on JH2 domain of human Tyk2 (setting [1]) and on Tyk2 (MSD) was not below 8.00 in each case.

For the compound `CC(=O)Nc1cc(Nc2cc(C)nc(C(C)(F)F)n2)c(OCC2CCC2)cn1` [Example 62, N-(5-(cyclobutylmethoxy)-4-((2-(1,1-difluoroethyl)-6-methylpyrimidin-4-yl)amino)pyridin-2-yl)acetamide], the negative-log IC50 (pIC50) on JH2 domain of human Tyk2 (setting [2]) is not below 8.00; on Tyk2 (MSD), 7.00 to 8.00.

For `CC(=O)Nc1cc(Nc2cc(C)nc(C(C)(F)F)n2)c(-c2nsc(N(C)C)n2)cn1` [Example 763, N-(4-((2-(1,1-difluoroethyl)-6-methylpyrimidin-4-yl)amino)-5-(5-(dimethylamino)-1,2,4-thiadiazol-3-yl)pyridin-2-yl)acetamide], the values for the pIC50 on JH2 domain of human Tyk2 (setting [3]) and on Tyk2 were not below 8.00 and 6.00 to 7.00, respectively.

Turning to `CC(=O)Nc1cc(Nc2cc(C)nc(C(C)(F)F)n2)c(-c2cnn(C)c2)cn1` [Example 812, N-(4-((2-(1,1-difluoroethyl)-6-methylpyrimidin-4-yl)amino)-5-(1-methyl-1H-pyrazol-4-yl)pyridin-2-yl)acetamide], the pIC50 was 7.00 to 8.00 on JH2 domain of human Tyk2 (setting [3]) and not above 6.00 against Tyk2.
